From PubChem BioAssay (NCI)
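Grown in 96-well plates, cells were treated for 48 hours with each compound at five concentrations. Insufficient inhibition: endpoint recorded as highest concentration tested. TGI: total growth inhibition.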

Experiments:
Test in all cases: NCI anticancer screen, dose series, 48 h
M19-MEL melanoma = system: M19-MEL melanoma
SF-539 CNS = system: SF-539 CNS
U251 CNS = system: U251 CNS
CCRF-CEM leukemia = system: CCRF-CEM leukemia
SNB-19 CNS = system: SNB-19 CNS
NCI-H522 lung = system: NCI-H522 lung
TK-10 renal = system: TK-10 renal
RPMI-8226 leukemia = system: RPMI-8226 leukemia
OVCAR-3 ovarian = system: OVCAR-3 ovarian
ACHN renal = system: ACHN renal
DLD-1 colon = system: DLD-1 colon
OVCAR-5 ovarian = system: OVCAR-5 ovarian
EKVX NSCLC = system: EKVX NSCLC
LXFL 529 NSCLC = system: LXFL 529 NSCLC
COLO 205 colon = system: COLO 205 colon
HL-60(TB) leukemia = system: HL-60(TB) leukemia
SN12C renal = system: SN12C renal
KM20L2 colon = system: KM20L2 colon
A549 NSCLC = system: A549 NSCLC
SK-MEL-2 melanoma = system: SK-MEL-2 melanoma
CAKI-1 renal = system: CAKI-1 renal
HCC-2998 colon = system: HCC-2998 colon
OVCAR-4 ovarian = system: OVCAR-4 ovarian
A498 renal = system: A498 renal
SF-268 CNS = system: SF-268 CNS
SF-295 CNS = system: SF-295 CNS
DMS 114 small cell lung = system: DMS 114 small cell lung
MOLT-4 leukemia = system: MOLT-4 leukemia
M14 melanoma = system: M14 melanoma
SNB-75 CNS = system: SNB-75 CNS
RXF-631 renal = system: RXF-631 renal
DMS 273 small cell lung = system: DMS 273 small cell lung
UO-31 renal = system: UO-31 renal
KM12 colon = system: KM12 colon
HOP-62 NSCLC = system: HOP-62 NSCLC
MALME-3M melanoma = system: MALME-3M melanoma
HOP-92 NSCLC = system: HOP-92 NSCLC
NCI-H23 lung = system: NCI-H23 lung
XF 498 CNS = system: XF 498 CNS
K-562 leukemia = system: K-562 leukemia
786-0 renal = system: 786-0 renal
UACC-257 melanoma = system: UACC-257 melanoma
HCT-116 colon = system: HCT-116 colon
UACC-62 melanoma = system: UACC-62 melanoma
IGROV1 ovarian = system: IGROV1 ovarian
SW-620 colon = system: SW-620 colon
NCI-H226 lung = system: NCI-H226 lung
HT29 colon = system: HT29 colon
SK-MEL-28 melanoma = system: SK-MEL-28 melanoma
HCT-15 colon = system: HCT-15 colon
OVCAR-8 ovarian = system: OVCAR-8 ovarian
SK-MEL-5 melanoma = system: SK-MEL-5 melanoma
SK-OV-3 ovarian = system: SK-OV-3 ovarian
RXF 393 renal = system: RXF 393 renal
SNB-78 CNS = system: SNB-78 CNS
LOX IMVI melanoma = system: LOX IMVI melanoma
HOP-18 NSCLC = system: HOP-18 NSCLC
NCI-H460 lung = system: NCI-H460 lung
SR leukemia = system: SR leukemia

For Cc1ccc(N=NC(C(=O)c2ccccc2)C(=O)c2ccccc2)cc1, the TGI (M19-MEL melanoma) was 41.2 µM, the TGI (SF-539 CNS) was 97.3 µM and the TGI (U251 CNS) was over 100 µM. It also gave a TGI (CCRF-CEM leukemia) of 69.4 µM, a TGI (SNB-19 CNS) of 86.4 µM and a TGI (NCI-H522 lung) of 44.3 µM. The TGI (TK-10 renal) was over 100 µM, the TGI (RPMI-8226 leukemia) was 67.4 µM and the TGI (OVCAR-3 ovarian) was over 100 µM. For the same molecule, the TGI (ACHN renal) was over 100 µM, the TGI (DLD-1 colon) was 76 µM and the TGI (OVCAR-5 ovarian) was 58 µM. It also gave a TGI (EKVX NSCLC) of over 100 µM, a TGI (LXFL 529 NSCLC) of over 100 µM and a TGI (COLO 205 colon) of 52.4 µM. It also gave a TGI (HL-60(TB) leukemia) of 33.7 µM, a TGI (SN12C renal) of 55.2 µM and a TGI (KM20L2 colon) of 60.9 µM. For the same molecule, the TGI (A549 NSCLC) was over 100 µM, the TGI (SK-MEL-2 melanoma) was 55.4 µM and the TGI (CAKI-1 renal) was 85 µM. For the same molecule, the TGI (HCC-2998 colon) was over 100 µM, the TGI (OVCAR-4 ovarian) was 61.6 µM and the TGI (A498 renal) was over 100 µM. The TGI (SF-268 CNS) was over 100 µM, the TGI (SF-295 CNS) was over 100 µM and the TGI (DMS 114 small cell lung) was 54.7 µM. For the same molecule, the TGI (MOLT-4 leukemia) was 63 µM, the TGI (M14 melanoma) was 34.5 µM and the TGI (SNB-75 CNS) was 93.4 µM. For the same molecule, the TGI (RXF-631 renal) was over 100 µM, the TGI (DMS 273 small cell lung) was 58.8 µM and the TGI (UO-31 renal) was 44.4 µM. For the same molecule, the TGI (KM12 colon) was over 100 µM, the TGI (HOP-62 NSCLC) was 71.9 µM and the TGI (MALME-3M melanoma) was over 100 µM. The TGI (HOP-92 NSCLC) was 41.5 µM, the TGI (NCI-H23 lung) was 63.2 µM and the TGI (XF 498 CNS) was 54.6 µM. The TGI (K-562 leukemia) was 88.2 µM, the TGI (786-0 renal) was 40 µM and the TGI (UACC-257 melanoma) was over 100 µM. The TGI (HCT-116 colon) was 65.6 µM, the TGI (UACC-62 melanoma) was 60.8 µM and the TGI (IGROV1 ovarian) was over 100 µM. The TGI (SW-620 colon) was over 100 µM, the TGI (NCI-H226 lung) was 40.6 µM and the TGI (HT29 colon) was 62.2 µM. It also gave a TGI (SK-MEL-28 melanoma) of over 100 µM, a TGI (HCT-15 colon) of 43.6 µM and a TGI (OVCAR-8 ovarian) of over 100 µM. The TGI (SK-MEL-5 melanoma) was 55.1 µM and the TGI (SK-OV-3 ovarian) was 96 µM.

CCCCCCCCCCCCCCCCOP(=O)(O)Oc1ccc(/C=C\c2ccc(OP(=O)(O)OCCCCCCCCCCCCCCCC)cc2)cc1 showed a TGI (RXF 393 renal) of 9.1 µM, a TGI (M19-MEL melanoma) of over 100 µM and a TGI (U251 CNS) of over 100 µM. It also gave a TGI (CCRF-CEM leukemia) of 88.7 µM, a TGI (SNB-19 CNS) of over 100 µM and a TGI (NCI-H522 lung) of over 100 µM. The TGI (TK-10 renal) was 72.4 µM, the TGI (RPMI-8226 leukemia) was 80 µM and the TGI (SNB-78 CNS) was 91.9 µM. For the same molecule, the TGI (OVCAR-3 ovarian) was over 100 µM, the TGI (ACHN renal) was over 100 µM and the TGI (DLD-1 colon) was over 100 µM. The TGI (OVCAR-5 ovarian) was over 100 µM, the TGI (EKVX NSCLC) was over 100 µM and the TGI (LXFL 529 NSCLC) was over 100 µM. For the same molecule, the TGI (LOX IMVI melanoma) was over 100 µM, the TGI (HOP-18 NSCLC) was over 100 µM and the TGI (COLO 205 colon) was 33.6 µM. It also gave a TGI (HL-60(TB) leukemia) of 53.1 µM, a TGI (SN12C renal) of over 100 µM and a TGI (KM20L2 colon) of over 100 µM. For the same molecule, the TGI (A549 NSCLC) was over 100 µM, the TGI (SK-MEL-2 melanoma) was over 100 µM and the TGI (NCI-H460 lung) was over 100 µM. For the same molecule, the TGI (CAKI-1 renal) was over 100 µM, the TGI (HCC-2998 colon) was over 100 µM and the TGI (OVCAR-4 ovarian) was over 100 µM. The TGI (A498 renal) was over 100 µM, the TGI (SF-268 CNS) was over 100 µM and the TGI (SF-295 CNS) was over 100 µM. For the same molecule, the TGI (DMS 114 small cell lung) was 49.4 µM, the TGI (MOLT-4 leukemia) was over 100 µM and the TGI (M14 melanoma) was over 100 µM. It also gave a TGI (SNB-75 CNS) of 80.8 µM, a TGI (RXF-631 renal) of over 100 µM and a TGI (DMS 273 small cell lung) of 62.4 µM. It also gave a TGI (UO-31 renal) of over 100 µM, a TGI (KM12 colon) of over 100 µM and a TGI (HOP-62 NSCLC) of over 100 µM. It also gave a TGI (MALME-3M melanoma) of over 100 µM, a TGI (HOP-92 NSCLC) of 67.1 µM and a TGI (NCI-H23 lung) of over 100 µM. The TGI (K-562 leukemia) was over 100 µM, the TGI (786-0 renal) was over 100 µM and the TGI (UACC-257 melanoma) was over 100 µM. It also gave a TGI (SR leukemia) of 47.1 µM, a TGI (HCT-116 colon) of over 100 µM and a TGI (UACC-62 melanoma) of over 100 µM. For the same molecule, the TGI (IGROV1 ovarian) was over 100 µM, the TGI (SW-620 colon) was over 100 µM and the TGI (NCI-H226 lung) was over 100 µM. It also gave a TGI (HT29 colon) of over 100 µM, a TGI (SK-MEL-28 melanoma) of over 100 µM and a TGI (HCT-15 colon) of over 100 µM. The TGI (OVCAR-8 ovarian) was 56.1 µM, the TGI (SK-MEL-5 melanoma) was over 100 µM and the TGI (SK-OV-3 ovarian) was over 100 µM.
